Results published in patent US20130190407A1, “CALCIUM RECEPTOR-ACTIVE MOLECULES” (NPS Pharmaceuticals, Inc., priority 1991, published 2013).

How the values were obtained:
Assay type in all cases: cell-based
calcium receptor = molecular target: T1, calcium receptor (Bos taurus, UniProt P35384); assay: 45Ca2+ release from Xenopus oocytes injected with bovine parathyroid mRNA; conditions: 10 mM for 20 min, compared to mock challenge with buffer
T1 construct: Whole pieces of gland were used to prepare mRNA that directs the expression of the calcium receptor in Xenopus oocytes; expressed in transfected cells; host or cells: Xenopus laevis oocytes injected with total poly(A)+ mRNA from bovine parathyroid glands
T1 sequence (P35384 20-1085): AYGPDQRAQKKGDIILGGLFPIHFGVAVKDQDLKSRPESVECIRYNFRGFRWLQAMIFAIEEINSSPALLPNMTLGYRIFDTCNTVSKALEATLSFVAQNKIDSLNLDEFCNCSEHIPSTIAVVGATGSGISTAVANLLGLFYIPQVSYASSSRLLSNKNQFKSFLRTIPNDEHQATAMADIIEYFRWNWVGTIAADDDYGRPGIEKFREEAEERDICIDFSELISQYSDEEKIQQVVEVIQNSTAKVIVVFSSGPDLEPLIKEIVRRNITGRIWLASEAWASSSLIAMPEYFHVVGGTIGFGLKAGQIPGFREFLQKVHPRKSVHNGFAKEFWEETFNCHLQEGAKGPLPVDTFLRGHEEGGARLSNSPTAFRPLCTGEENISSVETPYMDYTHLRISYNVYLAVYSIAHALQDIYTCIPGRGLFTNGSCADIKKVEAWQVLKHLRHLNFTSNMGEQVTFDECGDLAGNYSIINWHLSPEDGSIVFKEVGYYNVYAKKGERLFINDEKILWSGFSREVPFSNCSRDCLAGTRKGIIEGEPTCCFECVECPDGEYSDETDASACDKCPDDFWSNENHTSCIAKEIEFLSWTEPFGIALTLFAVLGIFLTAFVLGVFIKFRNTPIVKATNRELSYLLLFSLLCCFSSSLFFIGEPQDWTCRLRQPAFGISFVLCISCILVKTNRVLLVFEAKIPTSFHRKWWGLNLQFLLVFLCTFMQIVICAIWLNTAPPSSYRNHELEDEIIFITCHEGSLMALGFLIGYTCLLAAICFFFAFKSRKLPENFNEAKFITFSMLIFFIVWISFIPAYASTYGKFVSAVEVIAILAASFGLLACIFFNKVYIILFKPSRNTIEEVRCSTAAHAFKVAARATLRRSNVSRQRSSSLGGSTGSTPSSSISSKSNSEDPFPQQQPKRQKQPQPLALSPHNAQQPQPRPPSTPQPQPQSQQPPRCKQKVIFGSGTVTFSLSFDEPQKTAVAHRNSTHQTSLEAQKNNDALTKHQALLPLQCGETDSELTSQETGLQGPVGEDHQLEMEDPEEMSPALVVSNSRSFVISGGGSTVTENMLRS
Excerpt: For example, we have been able to detect calcium receptor expression in oocytes by measuring ^45Ca^2+ mobilization. […] Prior to being stimulated, oocytes were loaded with ^45Ca^2+. […] The assay is sensitive enough for use in cloning the calcium receptor, and has the advantage of a higher throughput than the electrophysiological measurement of Ca^2+-activated Cl^− current.

HuPCaR 5.2 = molecular target: T2, HuPCaR 5.2 (Homo sapiens, UniProt P41180, E1011Q/Q926R); assay: [Ca2+]i (fura-2) in HEK293 cells transfected with HuPCaR 5.2
T2 construct: appear to be full-length clones corresponding to the 5 Kb mRNA; expressed in transfected cells; host or cells: HEK293 cells, hygromycin-selected pool, Cep4B vector with the HuPCaR 5.2 insert
T2 sequence (P41180 20-1088 isoform P41180-2 Q936R/E1021Q): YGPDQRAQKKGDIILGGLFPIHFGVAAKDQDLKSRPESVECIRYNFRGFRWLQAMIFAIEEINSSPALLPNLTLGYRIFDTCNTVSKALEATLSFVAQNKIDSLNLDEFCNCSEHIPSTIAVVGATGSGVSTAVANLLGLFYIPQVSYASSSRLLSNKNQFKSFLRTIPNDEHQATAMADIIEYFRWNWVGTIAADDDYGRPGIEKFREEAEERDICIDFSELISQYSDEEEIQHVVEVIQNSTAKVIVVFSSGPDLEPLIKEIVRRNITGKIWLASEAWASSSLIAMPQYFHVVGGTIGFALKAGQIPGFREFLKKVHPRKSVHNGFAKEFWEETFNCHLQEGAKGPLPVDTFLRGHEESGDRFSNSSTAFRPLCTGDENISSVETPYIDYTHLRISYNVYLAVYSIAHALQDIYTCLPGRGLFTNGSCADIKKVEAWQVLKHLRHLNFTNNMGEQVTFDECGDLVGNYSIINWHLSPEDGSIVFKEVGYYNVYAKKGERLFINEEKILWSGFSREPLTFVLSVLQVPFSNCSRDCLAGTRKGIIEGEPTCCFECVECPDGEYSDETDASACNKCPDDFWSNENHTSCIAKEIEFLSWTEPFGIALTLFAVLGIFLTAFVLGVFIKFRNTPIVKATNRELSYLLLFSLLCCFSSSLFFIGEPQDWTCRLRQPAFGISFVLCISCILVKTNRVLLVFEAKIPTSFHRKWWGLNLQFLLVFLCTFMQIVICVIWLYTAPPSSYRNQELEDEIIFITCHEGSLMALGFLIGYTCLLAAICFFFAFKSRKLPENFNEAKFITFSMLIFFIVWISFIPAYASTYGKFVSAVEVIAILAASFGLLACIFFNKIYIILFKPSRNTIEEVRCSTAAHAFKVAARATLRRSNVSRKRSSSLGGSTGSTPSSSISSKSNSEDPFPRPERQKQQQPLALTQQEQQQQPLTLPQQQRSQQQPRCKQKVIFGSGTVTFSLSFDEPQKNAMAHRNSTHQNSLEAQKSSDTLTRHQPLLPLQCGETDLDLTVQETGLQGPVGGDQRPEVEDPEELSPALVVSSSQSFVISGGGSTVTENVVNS
Method: Cells obtained from the pool of hygromycin selected HEK293 cells transfected with Cep4B containing the HuPCaR 5.2 insert were plated on collagen coated Aklar squares which had been placed into individual wells of 12-well tissue culture plates. Two to six days later, medium was removed and the cells washed with balanced salt solution and 1 ml of buffer containing 1 μM fura2-AM, 1 mM CaCl2 and 0.1% BSA and 1 mM CaCl2. Measurements of fluorescence in response to calcium receptor agonists were performed at 37° C. in a spectrofluorimeter using excitation and emission wavelengths of 340 and 510 nm, respectively. For signal calibration, Fmax was determined after addition of ionomycin (40 μM) and the apparent Fmin was determined by addition of 0.3 M EGTA, 2.5 M Tris-HCl; pH 10.

[1] = molecular target: T3, human parathyroid cell calcium receptor (Homo sapiens, UniProt P41180, E1011Q/Q926R); assay: Cl- current in Xenopus oocytes injected with pHuPCaR 5.2; conditions: 3 to 30 μM; 0.3 mM extracellular Ca2+
T3 construct: appear to be full-length clones corresponding to the 5 Kb mRNA; expressed in transfected cells; host or cells: Xenopus laevis oocytes injected with pHuPCaR 5.2
T3 sequence (P41180 20-1088 isoform P41180-2 Q936R/E1021Q): T2 sequence (P41180 20-1088 isoform P41180-2 Q936R/E1021Q)
Method: Xenopus oocytes were injected with pHuPCaR 5.2, the 5.2 Kb cDNA encoding a parathyroid cell calcium receptor derived from a human parathyroid cell adenoma. (See Example 27.) After two to three days, Cl^− currents were measured in the oocytes using a two-electrode voltage clamp.

NC[C@@H]1O[C@H](O[C@H]2[C@@H](O)[C@H](O[C@@H]3[C@@H](O)[C@H](N)C[C@H](N)[C@H]3O[C@H]3O[C@H](CN)[C@@H](O)[C@H](O)[C@H]3N)O[C@@H]2CO)[C@H](N)[C@@H](O)[C@@H]1O [Neomycin B, neomycin B]
increase in 45Ca2+ release (calcium receptor): 76%

COc1cccc([C@@H](C)NCCCc2ccccc2)c1 (single isomer, unassigned) [NPS R-467]
intracellular calcium (HuPCaR 5.2): Robust increases in intracellular calcium

COc1cccc([C@@H](C)NCCCc2ccccc2Cl)c1 [NPS R-568, (R)-(+)-N-[3-(2-chlorophenyl)propyl]-α-methyl-3-methoxybenzylamine]
Cl- current [1]: evoked increases in the Cl^− current
